This note sets out measurements from paper PMC11938014, “Development and Application of Small Molecule–Peptide Conjugates as Cathepsin K-Specific Covalent Irreversible Inhibitors in Human Osteoclast and Lung Cancer” (JACS Au, 2025).

The target of one data set is T1, CTSK (Homo sapiens, UniProt P43235).
T1 construct: made in house
T1 sequence (P43235 115-329): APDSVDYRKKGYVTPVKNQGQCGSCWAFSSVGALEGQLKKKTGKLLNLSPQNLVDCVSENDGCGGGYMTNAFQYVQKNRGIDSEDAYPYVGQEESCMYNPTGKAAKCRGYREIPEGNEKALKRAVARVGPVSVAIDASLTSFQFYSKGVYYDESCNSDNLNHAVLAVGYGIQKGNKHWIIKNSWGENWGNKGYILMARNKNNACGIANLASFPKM
Briefly: Kinetic evaluation of recombinant cathepsin inhibition, fluorogenic substrate Z-FR-AMC. The data set is classed as biochemical. Conditions: for Ki: irreversible inhibitors. The procedure: (§1) Cathepsin (0.4 nM, CatK) or 5 nM (CatS, CatB, and CatL) were each mixed with inhibitors before adding the fluorogenic substrate. The proteases were then reacted with their substrates, Z-RR-AMC (CatL) or Z-FR-AMC (CatS, CatB, and CatK), for 30 min at 37 °C in the phosphate buffer (100 mM Na2HPO4/NaH2PO4, 50 mM NaCl, 5 mM DTT, 0.1% PEG-6000, at pH 6). Reactions were done in 96-well black flat-bottom microplates (Greiner, Germany); fluorescence (Ex/Em 370 and 460 nm) was measured by a Tecan INFINITE M1000 pro plate reader (Tecan, Switzerland) in the presence of inhibitors or vehicle. For irreversible inhibitors, reaction data were analyzed by using the one-phase association formula in GraphPad Prism 9 software: Y = Y0 + (plateau – Y0) × (1 – exp(−K × X)), where Y0 and Y denote the fluorescence signals at times 0 and t, respectively, K represents the observed reaction rate kobs, and X signifies the […]. The inactivation rates at each inhibitor concentration were determined by subtracting the inactivation observed in the control sample: kobs – kctrl. The maximum inactivation rate (kinact) was derived as the asymptote from the equation Y = kinact × X/(Ki^app + X), where X represents the inhibitor concentration, Y is the observed inactivation rate for each X, and Ki^app is the apparent inhibition constant. Ki values were derived from IC50 or Ki^app using the equations Ki = Ki^app/(1 + […]) and IC50 = E0/2 + Ki^app, where Km represents the Michaelis–Menten constant, S denotes substrate concentration, and E0 indicates cathepsin concentration. The maximum inhibitor dose in the experiment was 50 μM. Measurements were conducted in multiple independent duplicates. Average values are listed.

The next data set deals with T2, CTSS (Homo sapiens, UniProt P25774).
T2 construct: made in house
The description is as above. In kind it is biochemical. The protocol:
as §1

Data set [1] concerns the target T3, endogenous matured CTSK in intact U2-OS and U-87 MG cells (Homo sapiens, UniProt P43235).
T3 construct: endogenous in cells; host or cells: U2-OS and U-87 MG
T3 sequence (P43235 115-329): T1 sequence (P43235 115-329)
Nature of the data set: Competition assay in intact cells, GB123 labeling. The data set is classed as cell-based. Conditions: escalating doses. The protocol: Two cell lines, human osteosarcoma U2-OS and human glioblastoma U-87 MG, that naturally express CTSK along with other lysosomal cathepsins, were chosen to evaluate the inhibitors’ potency and selectivity.[43],[44] First, the intact cells were incubated for various durations with escalating doses of the inhibitors, and the ODN was used as a control. The residual cathepsin activity in the cells was detected by adding a pan-cathepsin ABP, GB123, after which the cells were lysed. The probe-labeled enzymes were then separated and visualized using fluorescent SDS-PAGE (Figures 5a,b and S7).[45] In both cells, the activity of several cathepsins was detected, while the fluorescent band at approximately 25 kDa was correlated to CTSK by immunoblotting (shown below in Figure 5a, b). The identity of each labeled band was detected by immunoblotting (Figure S7).[45] A selective dose-dependent suppression of CTSK activity was obtained in a range of inhibitor concentrations.
Figure 5 Direct inhibition of endogenous matured CTSK in intact U2-OS and U-87 MG cells. (a) Intact U2-OS cells were treated with DMSO, ODN, or increasing concentrations of the inhibitors GD20 or GD38 in their culture medium for 2 h. Cells were then treated with GB123 (5 μM) for 2 h, lysed, and separated by SDS-PAGE, followed by fluorescent scanning of the gel using a Typhoon scanner at 635/670 nm. An immunoblot of CTSK of the same gel is presented below. Different cathepsins are marked by colored arrowheads; a red arrowhead marks mature CTSK. s. ch. = single chain, h. ch. = heavy chain.[45] (b) Intact U-87 MG cells were treated with the inhibitor, followed by GB123, as described in panel (a).
U-87 MG and U2-0S cells (5 × 10^5 cells/well) were seeded in a six-well plate 1 day before treatment. […] Proteins were quantified by bicinchoninic acid (BCA, Thermo Scientific); an equal quantity of proteins was prepared for all samples, and after the addition of sample buffer, the lysates were boiled for 10 min, centrifuged, and separated by 12.5% SDS-PAGE. […]

The next data set concerns human osteoclasts. Briefly: Cell viability assay (methylene blue). In kind it is cell-based. Conditions: different concentrations, 48 h. The procedure:
[…]
Cell viability assay: U2-OS, U-87 MG, or enriched monocyte cells were grown at 37 0C with 5% of CO2 in the respective medium as described previously. Cells were seeded (1500 cells/well in 96 wells plate) one day before the incubation with indicated inhibitor s at various concentrations. After 48 h, cells were fixed, and viability was measured by quantita tive colorimetric assay using methylene blue according to the procedure reported by Ben -Bassat et al.9 The data were expressed as a percentage of control; data represent the mean of 2 experiments with triplicates for each treatment (± standard deviation).
Figure S10. Cell viability assay. a) U2-OS and, b) U-87 MG were incubated with the different concentrations of indicated inhibitors. After a 48 h incubation cells were fixed, and viability was measured by methylene blue assay.The data were expressed as a percentage of control; data represent the mean of 2 experiments with triplicates for each treatment (± SD). Statistical differences were evaluated by two -tailed Student’s t -test from two independent experiments.
Student’s t -test was non-significant except for samples indicated with *, P <0.05 and **, P <0.01. (c) Human osteoclasts were incubated with the different concentrations of indicated inhibitors. After a 48 h incubation cells were fixed, and viability was measured by methylene […]
(also on this page, place not known: t-test non -significant t-test 0 20 40 60 80 100 120 (0.5 µM)(5 µM)(1 µM)(5 µM)(1 µM) (0.5 µM) ODNGD38GD38GD38GD20GD20GD20 (0.5 µM) Cell viability (% of control) Concentration of compound) […]
(1 picture or pasted object on this page, not shown here)

T2 sequence (P25774 115-331): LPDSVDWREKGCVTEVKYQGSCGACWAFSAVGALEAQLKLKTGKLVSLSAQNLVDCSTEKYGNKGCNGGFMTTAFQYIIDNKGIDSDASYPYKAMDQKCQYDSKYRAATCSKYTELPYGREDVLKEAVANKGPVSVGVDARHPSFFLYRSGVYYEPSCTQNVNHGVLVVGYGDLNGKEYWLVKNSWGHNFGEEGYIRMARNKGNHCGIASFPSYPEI

By kinact is commonly meant the rate constant of inactivation at saturating inhibitor. One may read the kinact/KI as the maximal inactivation rate divided by the concentration that gives half of it. Take `CC(C)C[C@H](N[C@@H](c1ccc(-c2ccc(S(C)(=O)=O)cc2)cc1)C(F)(F)F)C(=O)NCC(=O)COC(=O)[C@@H]1CCCN1C(=O)[C@H](CC(C)C)NC(=O)OCC1c2ccccc2-c2ccccc21` [GD20]: on CTSK, the kinact was determined as 0.0026 s⁻¹; the kinact/KI was 232000 M⁻¹ s⁻¹; the “type of inhibition, CTSK” value is recorded as “irreversible”; the Ki is 13 nM. The Ki on CTSS (maximum inhibitor dose 50 μM) was above 50000 nM. For the same compound, in data set [1], the “inhibition of CTSK and selectivity over other cathepsins in intact cells, in words” value (“inhibition of CTSK and selectivity” below) is listed as “very selective at all concentrations tested”. The “cell viability (% of control) vs control” value with human osteoclasts is “no significant differences”.
`CC(C)C[C@H](N[C@@H](c1ccc(-c2ccc(S(C)(=O)=O)cc2)cc1)C(F)(F)F)C(=O)NCC(=O)COC(=O)[C@@H]1CCCN1C(=O)[C@H](CCC(N)=O)NC(=O)OCC1c2ccccc2-c2ccccc21` [GD38]: at CTSK, the kinact was determined as 0.0032 s⁻¹; the kinact/KI was 230000 M⁻¹ s⁻¹; the “type of inhibition, CTSK” value is “irreversible”; the Ki came out at 20.9 nM. In addition, at CTSS, the kinact was 0.009 s⁻¹; the kinact/KI stood at 178 M⁻¹ s⁻¹; the “type of inhibition, CTSS” value was “irreversible”. Besides, on CTSS (irreversible inhibitor), the Ki was 62000 nM. In addition, the “inhibition of CTSK and selectivity” value in data set [1] was “slightly reduced the activity of other cathepsins at high concentrations and longer incubation times”. For the same compound, in the data set on human osteoclasts, the “cell viability (% of control) vs control” value is on record as “no significant differences”.
Usually IC50 stands for the concentration that gives 50% inhibition. In the case of `CC(C)(F)C[C@H](N[C@@H](c1ccc(-c2ccc(S(C)(=O)=O)cc2)cc1)C(F)(F)F)C(=O)NC1(C#N)CC1` [ODN, odanacatib, reference compound], the “type of inhibition, CTSK” value at CTSK was “reversible (tight binding)”. For the same compound, the IC50 at CTSK (reversible (tight binding)) was found to be 0.942 nM. Further, the “type of inhibition, CTSS” value at CTSS is reported as “reversible”. For the same compound, the Ki on CTSS (reversible) was 136 nM. Also, in data set [1], the “inhibition of CTSK and selectivity” value is “could not detect”. For the same compound, the “cell viability (% of control) vs control” value in the data set with human osteoclasts is “no significant differences”.
